Measured values published in patent US20240067660A1, “MACROCYCLIC SPIROCYCLE DERIVATIVES AS MCL-1 INHIBITORS” (Janssen Pharmaceutica NV, priority 2019, published 2024).
Where two headings read alike, the source gives them in different places.

Columns and labels:
[1] = tested on: MOLP-8 human multiple myeloma cell line; assay: Caspase-Glo 3/7 assay in MOLP-8 cells; assay type: cell-based; settings: Caspase-Glo 3/7, 2 hours incubation, averaged over all runs on all batches, read-out: MOLP8 AC50
Excerpt: (§1) MCL-1 is a regulator of apoptosis and is highly over-expressed in tumor cells that escape cell death. The assay evaluates the cellular potency of small-molecule compounds targeting regulators of the apoptosis pathway, primarily MCL-1, Bfl-1, Bcl-2, and other proteins of the Bcl-2 family. Protein-protein inhibitors disrupting the interaction of anti-apoptotic regulators with BH3-domain proteins initiate apoptosis.
The Caspase-Glo® 3/7 Assay is a luminescent assay that measures caspase-3 and -7 activities in purified enzyme preparations or cultures of adherent or suspension cells. The assay provides a proluminescent caspase-3/7 substrate, which contains the tetrapeptide sequence DEVD. This substrate is cleaved to release aminoluciferin, a substrate of luciferase used in the production of light. Addition of the single Caspase-Glo® 3/7 Reagent in an “add-mix-measure” format results in cell lysis, followed by caspase cleavage of the substrate and generation of a “glow-type” luminescent signal.
This assay uses the MOLP-8 human multiple myeloma cell line, which is sensitive to MCL-1 inhibition.
Cell cultures were maintained between 0.2 and 2.0×10^6 cells/mL. The cells were harvested by collection in 50 mL conical tubes. The cells were then pelleted at 500 g for 5 mins before removing supernatant and resuspension in fresh pre-warmed culture medium. The cells were counted and diluted as needed.
The assay reagent was prepared by transferring the buffer solution to the substrate vial and mixing. The solution may be stored for up to 1 week at 4° C. with negligible loss of signal.
Compounds were delivered in assay-ready plates (Proxiplate) and stored at −20° C. Assays always include 1 reference compound plate containing reference compounds. The plates were spotted with 40 nL of compounds (0.5% DMSO final in cells; serial dilution; 30 μM highest conc. 1/3 dilution, 10 doses, duplicates). The compounds were used at room temperature and 4 μL of pre-warmed media was added to all wells except column 2 and 23. The negative control was prepared by adding 1% DMSO in media. The positive control was prepared by adding the appropriate positive control compound in final concentration of 60 μM in media. The plate was prepared by adding 4 μL negative control to column 23, 4 μL positive control to column 2 and 4 μL cell suspension to all wells in the plate. The plate with cells was then incubated at 37° C. for 2 hours. The assay signal reagent is the Caspase-Glo solution described above, and 8 μL was added to all wells. The plates were then sealed and measured after 30 minutes.
The activity of a test compound was calculated as percent change in apoptosis induction as follows: […]

[2] = tested on: MOLP8 cells; assay: MOLP8 CellEvent Caspase-3/7 Green IncuCyte live-cell apoptosis assay; assay type: cell-based, human
Experimental: as §1
Activation of the apoptotic pathway was measured using the CellEvent™ Caspase-3/7 Green ReadyProbes™ Reagent (Thermo Fisher C10423, C10723). This assay produces a green fluorescent stain in cells that enter the apoptosis pathway. CellEvent® Caspase-3/7 Green reagent is a four amino acid peptide (DEVD) conjugated to a nucleic acid-binding dye that is non-fluorescent when not bound to DNA. The CellEvent® Caspase-3/7 Green reagent is intrinsically non-fluorescent, as the DEVD peptide inhibits binding of the dye to DNA. Upon activation of caspase-3/7 in apoptotic cells, the DEVD peptide is cleaved and the free dye can bind DNA, generating a bright green fluorescence. The activation of Caspase-3 and Caspase-7 is downstream of inhibition of MCL-1 or other apoptosis inhibiting proteins in cell lines that are dependent on them.
The live-cell readout on the IncuCyte permits tracking over time of the Caspase activation. […] The IncuCyte readout also allows one to normalize for cell number, as the suspension cells are hard to distribute evenly.
Signals were measured every 2 h for a duration of 22 h. The ratio of the Caspase mask to the Confluence mask, per image, as raw data, was calculated and the kinetic trace for every well was exported to Genedata Screener for analysis.
In Genedata Screener values for 6 h, 12 h, and 22 h from the kinetic traces were extracted. The values were normalized against negative controls (untreated cells). A standard dose-response analysis was performed on the normalized data.
The following data was reported at each of the following three aforementioned time points: (a) The dose-response curve, (b) The qAC50 and qAC50 Mode, and (c) Max Activity.
Cells were maintained in culture medium containing 10% Heat Inactivated (HI) FBS, 2 mM L-Glutamine and 50 μg/mL Gentamycin phenol red free RPMI-1640. Cells were split at 0.4 million/mL twice a week.
On Day 1, plates containing individual wells with test compounds at 10 mM concentration, 150 nL per well. The final concentrations range from […] compound (and no compound control) and compounds were thawed at room temperature for 1 hour. 25 μl of prewarmed medium was added into each well by multidrop (column 1, 3-22, 24), followed by addition of DMSO control (0.6% DMSO) in column 2. The plate was sealed using Breathe-Easy® sealing membrane and shaken for 30 min at room temperature to dissolve the test compound(s) in medium. The plate was then kept in the incubator for 1 hour at 37° C., 5% CO2.
MOLP8 cells in medium at […] (20000/50 μl final in assay) were prepared with CellEvent™ Caspase-3/7 Green Detection Reagent at 4 μM (2 μM final in assay). Once prepared, the cells were added to the test compound plate in an amount of 20000 and the plate was immediately placed in the IncuCyte and imaging started using following settings: 10× objective, 2 s exposure time in green channel, interval of 2 h, acquisition stopped after 22 h.
For analysis in IncuCyte, a Basic Analysis protocol was defined to calculate the “confluence” and “caspase” areas from the “Phase” and “green” images, respectively, as follows: (a) Confluence: Segmentation Adjustment 1, Hole Fill 0, Adjust Size −2, No filters (b) Caspase: Top-Hat segmentation, Radius 10, Threshold 0.3 GCU, Edge Split On with sensitivity 0, Hole Fill 0, Adjust Size 1, and filter on a minimum Area of 20 μm^2. The analyzer is trained on a sufficient number of positive and negative control wells, as well as compound treated wells, verifying that the “confluence” layer detects both live and dead (condensed) cells. […]

[3] = Homo sapiens, MOLP-8, 6 h, 6 h, read-out: MOLP8 Caspase 3/7 AC50 at 6 h
[4] = Homo sapiens, MOLP-8, 12 h, 12 h, read-out: MOLP8 Caspase 3/7 AC50 at 12 h
[5] = Homo sapiens, MOLP-8, 22 h, 22 h, read-out: MOLP8 Caspase 3/7 AC50 at 22 h

SMILES | AC50 ([1]; Homo sapiens, MOLP-8, 2 h) [nM] | AC50 [2, 3] [nM] | AC50 [2, 4] [nM] | AC50 [2, 5] [nM] | AC50 [1] [nM] | AC50 ([2]; 6 h, read-out: MOLP8 Caspase 3/7 AC50 at 6 h) [nM] | AC50 ([2]; 12 h, read-out: MOLP8 Caspase 3/7 AC50 at 12 h) [nM] | AC50 ([2]; 22 h, read-out: MOLP8 Caspase 3/7 AC50 at 22 h) [nM]
C[C@@H]1[C@@H](C)C/C=C/C(CO)N2CC[C@H]2CN2C[C@@]3(CCCc4cc(Cl)ccc43)COc3ccc(cc32)C(=O)NS1(=O)=O (single isomer, unassigned) [Compound 10] | 1490 | 3070 | 3240 | 3430 |  |  |  | 
C[C@@H]1[C@@H](C)C/C=C(\F)[C@H](COc2ccccn2)N2CC[C@@H]2CN2C[C@@]3(CCCc4cc(Cl)ccc43)COc3ccc(cc32)C(=O)NS1(=O)=O [Compound 12] |  |  |  |  | 520 | 1220 | 1120 | 1330
C[C@@H]1[C@@H](C)C/C=C(\F)[C@H](COCC(=O)N2CC(F)(F)C2)N2CC[C@H]2CN2C[C@@]3(CCCc4cc(Cl)ccc43)COc3ccc(cc32)C(=O)NS1(=O)=O [Compound 19] | 302 | 390 | 400 | 430 |  |  |  | 
CC(C)COC[C@H]1/C(F)=C/C[C@H](C)[C@@H](C)S(=O)(=O)NC(=O)c2ccc3c(c2)N(C[C@@H]2CCN21)C[C@@]1(CCCc2cc(Cl)ccc21)CO3 [Compound 15] | 1860 | 2430 | 2400 | 2420 |  |  |  | 
C[C@@H]1[C@@H](C)C/C=C(\F)[C@H](COCCC2CCOCC2)N2CC[C@H]2CN2C[C@@]3(CCCc4cc(Cl)ccc43)COc3ccc(cc32)C(=O)NS1(=O)=O [Compound 23] | 545 | 1110 | 1040 | 1150 |  |  |  | 
Cc1nc(COC[C@H]2/C(F)=C/C[C@H](C)[C@@H](C)S(=O)(=O)NC(=O)c3ccc4c(c3)N(C[C@@H]3CCN32)C[C@@]2(CCCc3cc(Cl)ccc32)CO4)no1 [Compound 24] | 234 | 390 | 410 | 400 |  |  |  | 
COC[C@H]1/C=C/C[C@@H](C)[C@@H](C)S(=O)(=O)NC(=O)c2ccc3c(c2)N(C[C@@H]2CCN21)C[C@@]1(CCCc2cc(Cl)ccc21)CO3 [Compound 4] | 740 | ~1310 | 1200 | ~1380 |  |  |  | 
C[C@@H]1[C@@H](C)C/C=C(\F)[C@H](CF)N2CC[C@H]2CN2C[C@@]3(CCCc4cc(Cl)ccc43)COc3ccc(cc32)C(=O)NS1(=O)=O [Compound 31] | 512 | 1090 | 900 | 940 |  |  |  | 
COC[C@H]1/C(F)=C/C[C@H](C)[C@@H](C)S(=O)(=O)NC(=O)c2ccc3c(c2)N(C[C@@H]2CCN21)C[C@@]1(CCCc2cc(Cl)ccc21)CO3 [Compound 13] | 181 | 520 | 530 | 560 |  |  |  | 
C[C@@H]1[C@@H](C)C/C=C(\F)[C@H](COCC2CCC2)N2CC[C@H]2CN2C[C@@]3(CCCc4cc(Cl)ccc43)COc3ccc(cc32)C(=O)NS1(=O)=O [Compound 26] | 2520 | 3540 | 3570 | 3060 |  |  |  | 
COCCCOC[C@H]1/C(F)=C/C[C@H](C)[C@@H](C)S(=O)(=O)NC(=O)c2ccc3c(c2)N(C[C@@H]2CCN21)C[C@@]1(CCCc2cc(Cl)ccc21)CO3 [Compound 22] | 274 | 550 | 570 | 620 |  |  |  | 
C[C@@H]1[C@@H](C)C/C=C(\F)[C@H](CO)N2CC[C@H]2CN2C[C@@]3(CCCc4cc(Cl)ccc43)COc3ccc(cc32)C(=O)NS1(=O)=O [Compound 9] | 144 | 400 | 400 | 400 |  |  |  | 
COC[C@@H]1/C=C/C[C@@H](C)[C@@H](C)S(=O)(=O)NC(=O)c2ccc3c(c2)N(C[C@@H]2CCN21)C[C@@]1(CCCc2cc(Cl)ccc21)CO3 [Compound 7] | 852 | 2160 | 1720 | 1900 |  |  |  | 
CCOC[C@H]1/C(F)=C/C[C@H](C)[C@@H](C)S(=O)(=O)NC(=O)c2ccc3c(c2)N(C[C@@H]2CCN21)C[C@@]1(CCCc2cc(Cl)ccc21)CO3 [Compound 16] | 207 | 450 | 450 | 480 |  |  |  | 
C[C@@H]1[C@@H](C)C/C=C(\F)[C@H](COCC(=O)N2CCOCC2)N2CC[C@H]2CN2C[C@@]3(CCCc4cc(Cl)ccc43)COc3ccc(cc32)C(=O)NS1(=O)=O [Compound 18] | 448 | 660 | 570 | 600 |  |  |  | 
C[C@@H]1[C@@H](C)C/C=C(\F)[C@H](COCC(=O)O)N2CC[C@H]2CN2C[C@@]3(CCCc4cc(Cl)ccc43)COc3ccc(cc32)C(=O)NS1(=O)=O [Compound 17] | 5990 | 11100 | 10000 | 9610 |  |  |  | 
C[C@@H]1[C@@H](C)C/C=C(\F)[C@H](COc2ccccn2)N2CC[C@H]2CN2C[C@@]3(CCCc4cc(Cl)ccc43)COc3ccc(cc32)C(=O)NS1(=O)=O [Compound 11] | 1490 | 2380 | 2320 | 2520 |  |  |  | 
C[C@@H]1[C@@H](C)C/C=C(\F)[C@H](COCCCN2CCOCC2)N2CC[C@H]2CN2C[C@@]3(CCCc4cc(Cl)ccc43)COc3ccc(cc32)C(=O)NS1(=O)=O [Compound 25] | 231 | 360 | 360 | 360 |  |  |  | 
COCC1/C=C/C[C@H](C)[C@@H](C)S(=O)(=O)NC(=O)c2ccc3c(c2)N(C[C@@H]2CCCN12)C[C@@]1(CCCc2cc(Cl)ccc21)CO3 (single isomer, unassigned) [Compound 8] | 1330 | 2390 | 2490 | 2840 |  |  |  | 
